Data from article PMC11277489, “Novel Piperazine Derivatives of Vindoline as Anticancer Agents” (International Journal of Molecular Sciences, 2024).
Where two headings read alike, the source gives them in different places.

Experiments:
Assay type in all cases: cell-based
PC-3 = experiment: NCI60 five-dose screen, Prostate Cancer; details: Homo sapiens; PC-3, Prostate Cancer; five-dose screen; read-out: GI50
786–0 = experiment: NCI60 five-dose screen, Renal Cancer; details: Homo sapiens; 786–0, Renal Cancer; five-dose screen; read-out: GI50
UO-31 = experiment: NCI60 five-dose screen, Renal Cancer; details: Homo sapiens; UO-31, Renal Cancer; five-dose screen; read-out: GI50
ACHN = experiment: NCI60 five-dose screen, Renal Cancer; details: Homo sapiens, Renal Cancer, five-dose screen, read-out: GI50
OVCAR-5 = experiment: NCI60 five-dose screen, Ovarian Cancer; details: Homo sapiens; OVCAR-5, Ovarian Cancer; five-dose screen; read-out: GI50
SK-MEL-28 = experiment: NCI60 five-dose screen, Melanoma; details: Homo sapiens; SK-MEL-28, Melanoma; five-dose screen; read-out: GI50
SF-539 = experiment: NCI60 five-dose screen, CNS Cancer; details: Homo sapiens; SF-539, CNS Cancer; five-dose screen; read-out: GI50
SK-MEL-2 = experiment: NCI60 five-dose screen, Melanoma; details: Homo sapiens; SK-MEL-2, Melanoma; five-dose screen; read-out: GI50
A498 = experiment: NCI60 five-dose screen, Renal Cancer; details: Homo sapiens; A498, Renal Cancer; five-dose screen; read-out: GI50
HS 578T = experiment: NCI60 five-dose screen, Breast Cancer; details: Homo sapiens; HS 578T, Breast Cancer; five-dose screen; read-out: GI50
BT-549 = experiment: NCI60 five-dose screen, Breast Cancer; details: Homo sapiens; BT-549, Breast Cancer; five-dose screen; read-out: GI50
SNB-19 = experiment: NCI60 five-dose screen, CNS Cancer; details: Homo sapiens; SNB-19, CNS Cancer; five-dose screen; read-out: GI50
NCI-H322M = experiment: NCI60 five-dose screen, Non-small Cell Lung Cancer; details: Homo sapiens, Non-small Cell Lung Cancer, five-dose screen, read-out: GI50
MDA-MB-468 = experiment: NCI60 five-dose screen, Breast Cancer; details: Homo sapiens; MDA-MB-468, Breast Cancer; five-dose screen; read-out: GI50
KM12 = experiment: NCI60 five-dose screen, Colon Cancer; details: Homo sapiens; KM12, Colon Cancer; five-dose screen; read-out: GI50
UACC-62 = experiment: NCI60 five-dose screen, Melanoma; details: Homo sapiens; UACC-62, Melanoma; five-dose screen; read-out: GI50
HOP-62 = experiment: NCI60 five-dose screen, Non-small Cell Lung Cancer; details: Homo sapiens; HOP-62, Non-small Cell Lung Cancer; five-dose screen; read-out: GI50
RXF 393 = experiment: NCI60 five-dose screen, Renal Cancer; details: Homo sapiens, RXF 393, Renal Cancer
MOLT-4 = experiment: NCI60 five-dose screen, Leukemia; details: Homo sapiens; MOLT-4, Leukemia; five-dose screen; read-out: GI50
HCT-116 = experiment: NCI60 five-dose screen, Colon Cancer; details: Homo sapiens; HCT-116, Colon Cancer; five-dose screen; read-out: GI50
[1] = test system: 60 human tumor cell lines (NCI60); experiment: NCI60 five-dose screen, whole panel and sub-panel means; details: Homo sapiens, read-out: GI50 Mean
RPMI-8226 = experiment: NCI60 five-dose screen, Leukemia; details: Homo sapiens; RPMI-8226, Leukemia; five-dose screen; read-out: GI50
SF-295 = experiment: NCI60 five-dose screen, CNS Cancer; details: Homo sapiens; SF-295, CNS Cancer; five-dose screen; read-out: GI50
SR = experiment: NCI60 five-dose screen, Leukemia; details: Homo sapiens, Leukemia, five-dose screen, read-out: GI50
MCF7 = experiment: NCI60 five-dose screen, Breast Cancer; details: Homo sapiens; MCF7, Breast Cancer; five-dose screen; read-out: GI50
OVCAR-3 = experiment: NCI60 five-dose screen, Ovarian Cancer; details: Homo sapiens; OVCAR-3, Ovarian Cancer; five-dose screen; read-out: GI50
SK-OV-3 = experiment: NCI60 five-dose screen, Ovarian Cancer; details: Homo sapiens; SK-OV-3, Ovarian Cancer; five-dose screen; read-out: GI50
M14 = experiment: NCI60 five-dose screen, Melanoma; details: Homo sapiens; M14, Melanoma; five-dose screen; read-out: GI50
A549/ATCC = experiment: NCI60 five-dose screen, Non-small Cell Lung Cancer; details: Homo sapiens; A549/ATCC, Non-small Cell Lung Cancer; five-dose screen; read-out: GI50
CCRF-CEM = experiment: NCI60 five-dose screen, Leukemia; details: Homo sapiens, Leukemia, five-dose screen, read-out: GI50
SN12C = experiment: NCI60 five-dose screen, Renal Cancer; details: Homo sapiens, Renal Cancer, five-dose screen, read-out: GI50
SW-620 = experiment: NCI60 five-dose screen, Colon Cancer; details: Homo sapiens; SW-620, Colon Cancer; five-dose screen; read-out: GI50
DU-145 = experiment: NCI60 five-dose screen, Prostate Cancer; details: Homo sapiens; DU-145, Prostate Cancer; five-dose screen; read-out: GI50
COLO 205 = experiment: NCI60 five-dose screen, Colon Cancer; details: Homo sapiens; COLO 205, Colon Cancer; five-dose screen; read-out: GI50
MDA-MB231ATCC = experiment: NCI60 five-dose screen, Breast Cancer; details: Homo sapiens, MDA-MB-231; MDA-MB231ATCC, Breast Cancer; five-dose screen; read-out: GI50

CC[C@]12C=CCN3CC[C@@]4(c5ccc(OC)cc5N(C)[C@H]4[C@@](O)(C(=O)OC)[C@@H]1OC(=O)CCC(=O)N1CCN(Cc4ccc(C(F)(F)F)cc4)CC1)[C@@H]32 [Compound 29]
GI50 (PC-3): 3.39 µM
GI50 (786–0): 12.3 µM
GI50 (UO-31): 6.92 µM
GI50 (ACHN): 10.7 µM
GI50 (OVCAR-5): 14.5 µM
GI50 (SK-MEL-28): 11.8 µM
GI50 (SF-539): 12.9 µM
GI50 (SK-MEL-2): 2.82 µM
GI50 (A498): 12.3 µM
GI50 (HS 578T): 10.2 µM
GI50 (BT-549): 15.1 µM
GI50 (SNB-19): 11.8 µM
GI50 (NCI-H322M): 14.5 µM
GI50 (MDA-MB-468): 1.95 µM
GI50 (KM12): 11.8 µM
GI50 (UACC-62): 11 µM
GI50 (HOP-62): 14.1 µM
GI50 (RXF 393): 4.47 µM
GI50 (MOLT-4): 5.25 µM
GI50 (HCT-116): 7.76 µM
GI50 ([1]; 60 cell, mean over all 60 cell lines): 9.76 µM
GI50 ([1]; mean over Breast Cancer panel): 8.72 µM
GI50 ([1]; mean over CNS Cancer panel): 11.1 µM
GI50 ([1]; mean over Colon Cancer panel): 9.71 µM
GI50 ([1]; mean over Leukemia panel): 9.07 µM
GI50 ([1]; mean over Melanoma panel): 9.42 µM
GI50 ([1]; mean over Non-small Cell Lung Cancer panel): 10.4 µM
GI50 ([1]; mean over Ovarian Cancer panel): 10.6 µM
GI50 ([1]; mean over Prostate Cancer panel): 7.3 µM
GI50 ([1]; mean over Renal Cancer panel): 9.9 µM
GI50 (RPMI-8226): 6.92 µM
GI50 (SF-295): 9.33 µM
GI50 (SR): 13.8 µM
GI50 (MCF7): 5.62 µM
GI50 (OVCAR-3): 6.46 µM
GI50 (SK-OV-3): 12.6 µM
GI50 (M14): 8.13 µM
GI50 (A549/ATCC): 8.32 µM
GI50 (CCRF-CEM): 11.8 µM
GI50 (SN12C): 11.5 µM
GI50 (SW-620): 11.5 µM
GI50 (DU-145): 11.2 µM
GI50 (COLO 205): 7.08 µM
GI50 (MDA-MB231ATCC): 14.1 µM
